{"source": "paper PMC8448162", "about": "“Single- and Multiple-Ascending-Dose Study of the Safety, Tolerability, and Pharmacokinetics of the Polymyxin Derivative SPR206” (Antimicrobial Agents and Chemotherapy, 2021)", "origin": "cited, not measured here", "key": {"[1]": {"tested_on": "kidney", "details": "mouse model; cited from earlier work"}, "[2]": {"tested_on": "bacterial burden in CFU/g", "parameters": "method as in earlier work", "details": "20 mg/kg, infection models in mice; cited from earlier work"}, "[3]": {"tested_on": "kidney", "details": "in vivo; cited from earlier work"}}}
{"substance": "polymyxin B [reference compound]", "values": [{"measurement": "histopathological changes in the kidney", "setting": "[1]", "result": "all animals"}, {"measurement": "change from baseline in Log10 (bacterial burden in CFU/g)", "setting": "[2]", "result": "−2.8", "unit": "Log10"}]}
{"substance": "colistin", "values": [{"measurement": "incidence of acute kidney injury", "setting": "[3]", "result": "up to 60%"}]}
